# In US10881698B2, “Diagnosis and treatment for respiratory tract diseases” (THE TRUSTEES OF THE UNIVERSITY OF PENNSYLVANIA, priority 2012, dated 2021):
# Where a chain is given by its changes, count along the chain named. “And” between values parts separate entries of the source, which are not always exact repeats. Equal entries are not always repeated. Where two headings read alike, the source gives them in different places.
# What was measured:
# T2R38 [1] = biological target: T1, T2R38 (Homo sapiens, UniProt P59533, A262V); assay: Fluo-4 Ca2+ imaging in primary human sinonasal ALI cultures; type: cell-based; conditions: AVI/AVI
# T1 construct: T2R38 is expressed in human upper airway epithelium; endogenous in cells; host or cells: primary human sinonasal epithelial cells, air-liquid interface cultures from surgical patients
# T1 sequence (P59533 1-333 A262V): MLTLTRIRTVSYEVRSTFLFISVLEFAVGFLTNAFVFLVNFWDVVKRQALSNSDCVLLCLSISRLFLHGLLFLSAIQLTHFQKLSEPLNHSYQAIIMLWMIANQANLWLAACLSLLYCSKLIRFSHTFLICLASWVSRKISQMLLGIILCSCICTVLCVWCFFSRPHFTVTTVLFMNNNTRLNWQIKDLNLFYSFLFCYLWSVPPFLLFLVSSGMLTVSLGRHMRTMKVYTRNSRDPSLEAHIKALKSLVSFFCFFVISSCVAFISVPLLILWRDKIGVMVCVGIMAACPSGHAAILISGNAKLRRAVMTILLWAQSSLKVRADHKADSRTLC
# T2R38 [2] = biological target: T2, T2R38 (Homo sapiens, UniProt P59533, A49P/I296V); assay: as above; type: cell-based
# T2 construct: T2R38 is expressed in human upper airway epithelium; endogenous in cells; host or cells: primary human sinonasal epithelial cells, air-liquid interface cultures from surgical patients
# T2 sequence (P59533 1-333 A49P/I296V): T1 sequence (P59533 1-333 A262V) with A49P, V262A, I296V
# T2R38 [3] = assay: as above; type: cell-based
# PAV-TAS2R38 = biological target: T3, PAV-TAS2R38 (Homo sapiens, UniProt P59533, A49P/I296V); assay: Fluo-4 calcium mobilization in HEK293 cells expressing hTAS2R38 (PAV) and Gα16gustducin44; type: cell-based; conditions: 100 μM; PAV variant
# T3 construct: first 45 amino acids of rat SSTR-3 (N); host or cells: HEK293 (peakRapid), transient transfection, pcDNA3.1(+)
# T3 sequence (P59533 1-333 A49P/I296V): T1 sequence (P59533 1-333 A262V) with A49P, V262A, I296V
# AVI-TAS2R38 = biological target: T4, AVI-TAS2R38 (Homo sapiens, UniProt P59533, A262V); assay: Fluo-4 calcium mobilization in HEK293 cells expressing hTAS2R38 (AVI) and Gα16gustducin44; type: cell-based; conditions: 100 μM; AVI variant
# T4 construct: first 45 amino acids of rat SSTR-3 (N); host or cells: HEK293 (peakRapid), transient transfection, pcDNA3.1(+)
# T4 sequence (P59533 1-333 A262V): T1 sequence (P59533 1-333 A262V)
# T2R38 [4] = biological target: T1, T2R38; assay: DAF-FM imaging of NO production in human sinonasal ALI cultures; type: cell-based; conditions: 5 min, AVI/AVI
# T2R38 [5] = biological target: T2, T2R38; assay: as above; type: cell-based; conditions: for DAF-FM fluorescence increase: 5 min, PAV/PAV
# T2R38 [6] = assay: as above; type: cell-based; conditions: for DAF-FM fluorescence increase: 5 min, PAV/AVI
# sinonasal ALI cultures [7] = type: cell-based, human
# sinonasal ALI cultures [8] = assay: Mucociliary transport velocity of fluorescent microspheres on sinonasal ALI cultures; type: cell-based, human
# [9] = test system: sinonasal epithelial cells; assay: DAF-FM NO production with quinine in PAV/AVI heterozygote sinonasal epithelial cells; type: cell-based, human; conditions: L-NAME 20 μM
# Pseudomonas aeruginosa [10] = test system: Pseudomonas aeruginosa
# Pseudomonas aeruginosa [11] = assay: Kill assay with ASL from stimulated sinonasal ALI cultures (CFU plating); type: cell-based
# nasal epithelial cells = assay: Fluo-4 calcium signaling with denatonium in nasal epithelial cells (sinonasal ALI cultures); type: cell-based, human
# beta-defensin 2 = assay: Beta-defensin 2 secretion by sinonasal cultures; type: cell-based, human; conditions: denatonium- or absinthin-stimulated cultures
smiles,measurement,setting,value
"CCCCCCCCCC(=O)CC(=O)N[C@H]1CCOC1=O [C12HSL, N-3-oxo-dodecanoyl-L-homoserine lactone]",Fluo-4 fluorescence after 10 min C12HSL stimulation,T2R38 [1]; 100 μM C12HSL,1.14±0.01
same,Fluo-4 fluorescence after 10 min C12HSL stimulation,"T2R38 [2]; 100 μM C12HSL, PAV/PAV",1.52±0.08
same,Fluo-4 fluorescence after 10 min C12HSL stimulation,"T2R38 [3]; 100 μM C12HSL, PAV/AVI",1.28±0.04
same,Peak Fluo-4 fluorescence (ΔF/F),PAV-TAS2R38,73±5%
same,Peak Fluo-4 fluorescence (ΔF/F),AVI-TAS2R38,3±2%
same,DAF-FM fluorescence increase,T2R38 [4]; 10 μM,44±9
same,DAF-FM fluorescence increase,T2R38 [4]; 100 μM,64±16
same,DAF-FM fluorescence increase,T2R38 [5]; 10 μM,235±20
same,DAF-FM fluorescence increase,T2R38 [5]; 100 μM,351±65
same,DAF-FM fluorescence increase,T2R38 [6]; 10 μM,77±13
same,DAF-FM fluorescence increase,T2R38 [6]; 100 μM,109±25
same,Peak CBF with C12HSL,sinonasal ALI cultures [7],1.25±0.05 and 1.03±0.01
same,Increase in velocity,"sinonasal ALI cultures [8]; 0.1 μM, PAV/PAV",1.09±0.02
same,Increase in velocity,"sinonasal ALI cultures [8]; 1 μM, PAV/PAV",1.23±0.04
same,Increase in velocity,"sinonasal ALI cultures [8]; 10 μM, PAV/PAV",1.48±0.04
same,Increase in velocity,"sinonasal ALI cultures [8]; 100 μM, AVI/AVI",1.14±0.03
same,Increase in velocity,"sinonasal ALI cultures [8]; 100 μM, PAV/PAV",1.64±0.04
same,Concentration required to stimulate a significant increase in mucociliary transport,sinonasal ALI cultures [8]; PAV/PAV cultures,1 µM
"COC(=O)[C@@H](N)CCCNC(=N)N[N+](=O)[O-] [L-NAME, L-N^G-Nitroarginine methyl ester]",Effect on C4HSL-induced NO production in taster cultures,T2R38 [5],represses the NO production
same,Effect on NaSCN-activated DAF-FM fluorescence,T2R38 [6],blocked
same,Effect on quinine-stimulated NO production,[9],inhibited
same,Effect on CBF increase in response to 6.25% PAO1 supernatant,sinonasal ALI cultures [7],significantly inhibited
same,Effect on HSL-stimulated CBF increase,sinonasal ALI cultures [7],blocked
same,% green (viable) PAO1,Pseudomonas aeruginosa [10],90±2%
"CCCc1cc(=O)[nH]c(=S)[nH]1 [PROP, 6-n-propylthiouracil]",Intracellular DAF-FM fluorescence (NO production),"T2R38 [5]; apical application, PAV/PAV (taster) cells",stimulated an increase in intracellular DAF-FM fluorescence
C[C@H](CCC(=O)O)C[C@H](C)C[C@H](C)C(=O)/C=C(\O)[C@H](C)C[C@H](C)C/C=C/[C@@H](C)[C@@H](O)[C@@H](C)[C@@H](O)C[C@@H]1CC[C@@](C)([C@H]2CC[C@@](C)([C@@H](C)O)O2)O1 [ionomycin],DAF-FM responses between the genotypes (control stimuli),T2R38 [6],did not yield differential DAF-FM responses between the genotypes
Nc1ncnc2c1ncn2[C@@H]1O[C@H](COP(=O)(O)OP(=O)(O)OP(=O)(O)O)[C@@H](O)[C@H]1O [ATP],Peak Fluo-4 F/Fo during 10 μM ATP stimulation,T2R38 [1]; 10 μM ATP,2.90±0.09
same,Peak Fluo-4 F/Fo during 10 μM ATP stimulation,T2R38 [2]; PAV/PAV,2.96±0.08
same,Peak Fluo-4 F/Fo during 10 μM ATP stimulation,T2R38 [2]; PAV/PAV+U73122,2.82±0.1
same,Peak F/Fo during stimulation with 1 μM ATP,T2R38 [3]; L-NAME (50 μM),2.0±0.26
same,Peak F/Fo during stimulation with 1 μM ATP,T2R38 [3]; control (no L-NAME),1.9±0.21
same,ATP-induced Ca2+ responses versus TAS2R38 genotype,"T2R38 [3]; ATP 1 μM, PAV/PAV, PAV/AVI, AVI/AVI cultures",did not correlate with TAS2R38 genotype
same,Peak CBF after ATP stimulation between genotypes,sinonasal ALI cultures [7],not significantly different between cultures of different genotypes
same,Bactericidal response on stimulation of cells,Pseudomonas aeruginosa [11]; ATP stimulation,no bactericidal response was observed
COc1ccc(OC(C)C(=O)O)cc1 (centres unmarked) [lactisole],Effect on glucose-mediated inhibition of bacterial kill,Pseudomonas aeruginosa [11]; lactisole 5 mM,reduced or reversed the glucose-mediated inhibition of bacterial kill
same,Effect on sucrose/sucralose inhibition of denatonium calcium signaling,nasal epithelial cells; sweet receptor antagonist,substantially eliminates the inhibition
COc1ccc2c(c1)CC[C@@H]1[C@@H]2CC[C@]2(C)[C@@H](NCCCCCCN3C(=O)C=CC3=O)CC[C@@H]12 [U73122],Effect on C4HSL-induced NO production in taster cultures,"T2R38 [5]; C4HSL 200 μM, U73122 5 μM, 20 min pre-incubation",blocked
same,Effect on denatonium-induced antimicrobial response,Pseudomonas aeruginosa [11]; U73122 20 μM,inhibited
same,Effect on beta-defensin secretion,beta-defensin 2,may be blocked
"CC(=O)NC(C(=O)O)C(C)(C)SN=O (racemic) [SNAP, S-Nitroso-N-Acetyl-D,L-Penicillamine]",DAF-FM responses between the genotypes (control stimuli),"T2R38 [6]; SNAP 100 μM, ionomycin",did not yield differential DAF-FM responses between the genotypes
CC1(C)N([O])C(c2ccc(C(=O)O)cc2)=[N+]([O-])C1(C)C [cPTIO],% green (viable) PAO1,Pseudomonas aeruginosa [10],93±2%
CC(C)[C@]12CC(=O)[C@H](C)[C@H]1C2 [thujone],NO production with non-T2R38 bitter ligands,T2R38 [5],did not stimulate NO production
same,Ca2+ responses in sinonasal ALI cultures,nasal epithelial cells; non-T2R38 bitter agonists,not
COC(=O)[C@@]1(OC)C[C@H]2O[C@]1(C)n1c3ccccc3c3c4c(c5c6ccccc6n2c5c31)C(=O)N(C)C4 [KT5823],Effect on HSL-stimulated CBF increase,sinonasal ALI cultures [7],blocked
